For ten compounds, MIC results are on record in patent US4346087A, “Antibacterial surface active agent containing azaalkenelactam” (priority 1979, dated 1982).

Test [1] deals with Pseudomonas aruginosa IFO 3443. Put plainly: MIC against Pseudomonas aeruginosa. Type of test: cell-based. An excerpt: (§1) Below are described the antibacterial activities of the compounds in the compositions according to this invention. The results of antibacterial activity tests on the N-alkyl-substituted azaalkenelactams and their derivatives having a carboxylate radical of Examples 1 to 70 were as shown in Tables 1 to 3.
(§2) The testing method complied with the standard method of Japan Sociaty of Chemotherapy.

The test system of test [2] is Staphylococcus epidermidis. As to the kind of experiment: MIC against Staphylococcus epidermidis. Type of test: cell-based.
Excerpt: as §1, §2

In test [3] the test system is Staphylococcus aureus FDA 209P. Put plainly: MIC against Staphylococcus aureus FDA 209P. Type of test: cell-based.
Excerpt: (§3) Below are described the antibacterial activities of the compounds in the compositions according to this invention.
as §2

The subject of test [4] is Desulfovibrio desulfuricans IFO 13699. As to the kind of experiment: MIC against Desulfovibrio desulfuricans. The class given is cell-based.
Excerpt: as §3, §2

Another test concerns Pasteurella multocida. As to the kind of experiment: MIC against Pasteurella multocida. Type of test: cell-based.
Excerpt: as §1, §2

The test system of the next test is Streptococcus faecalis. Put plainly: MIC against Streptococcus faecalis. Type of test: cell-based.
Excerpt: as §1, §2

The subject of the next test is Escherichia coli NIHJ. As to the kind of experiment: MIC against Escherichia coli NIHJ. Type of test: cell-based.
Excerpt: as §3, §2

Test [5] deals with Bacillus subtilis ATCC 6633. Put plainly: MIC against Bacillus subtilis ATCC 6633. The class given is cell-based.
Excerpt: as §1, §2

For another test, the system named is Salmonella typhinurium. Put plainly: microbe, parasite or virus in culture. Type of test: cell-based, Salmonella typhimurium. The settings on record: Table 3, heart infusion agar, 37° C., 24 hours, read-out: MIC.
Excerpt: as §1, §2

[6] abbreviates: Table 3, heart infusion agar, 37° C., 24 hours.
[7] abbreviates: Table 1, azaalkenelactams, heart infusion agar, 37° C., 24 hours.
Setting [8] is: Staphylococcus epidermidis, Table 3, heart infusion agar, 37° C., 24 hours, read-out: MIC.
The mark [9] stands for this setting: Pasteurella multocida, Table 3, heart infusion agar, 37° C., 24 hours, read-out: MIC.
The mark [10] stands for this setting: Bacillus subtilis, ATCC6633, 24 h.
Setting [11] is: Staphylococcus aureus, FDA209P, Table 1, azaalkenelactams, heart infusion agar, 37° C., 24 hours, read-out: MIC.
Where [12] appears, read: Desulfovibrio desulfuricans, IFO13699, Table 1, azaalkenelactams, heart infusion agar, 37° C., 24 hours, read-out: MIC.
The mark [13] stands for this setting: Pseudomonas, IFO3443, Table 3, heart infusion agar, 37° C., 24 hours, read-out: MIC.
The mark [14] stands for this setting: Enterococcus faecalis, Table 3, heart infusion agar, 37° C., 24 hours, read-out: MIC.
Where [15] appears, read: Escherichia coli, Table 1, azaalkenelactams, heart infusion agar, 37° C., 24 hours, read-out: MIC.
The mark [16] stands for this setting: Bacillus subtilis, ATCC6633, Table 3, heart infusion agar, 37° C., 24 hours, read-out: MIC.
The mark [17] stands for this setting: Staphylococcus epidermidis, 24 h.

Converted amounts (≈) assume the structure as drawn. Where two headings read alike, the source gives them in different places. Some results are limits rather than exact numbers.

`CCCCCCCCCCCCCCC(O)CNCCN1CCCN=CC(C)C1=O` (centres unmarked) [Example 49, 1-(2-hydroxyhexadecyl)aminoethyl-3-methyl-3,6,7,8-tetrahydro-1,5-diazocin-2-one]: the MIC was 200 µg/mL (≈ 472 µM) in test [1] (setting [6]); 1.56 µg/mL (≈ 3.68 µM) in test [2] (setting [6]); 3.12 µg/mL (≈ 7.36 µM) in test [3] (setting [7]); 3.12 µg/mL (≈ 7.36 µM) in [4] (setting [7]); less than 1.56 µg/mL against Pasteurella multocida (setting [6]); 6.25 µg/mL (≈ 14.8 µM) against Streptococcus faecalis (setting [6]). Also, the MIC against Escherichia coli NIHJ came out at 25 µg/mL (≈ 59 µM); in test [5] (setting [6]) it was 3.12 µg/mL (≈ 7.36 µM).

For the compound `CCCCCCCCCCCCCCC(O)CNCCN1CCN=CCCC1=O` (centres unmarked) [Example 54, 4-(2-hydroxyhexadecyl)aminoethyl-2,3,6,7-tetrahydro-1,4-diazocin-5-one], the MIC in [1] (Pseudomonas, IFO3443, 24 h) was 200 µg/mL (≈ 488 µM); in test [2] (setting [8]), 1.56 µg/mL (≈ 3.81 µM); in test [3] (Staphylococcus aureus, FDA209P, 24 h), 6.25 µg/mL (≈ 15.3 µM); in test [4] (Desulfovibrio desulfuricans, IFO13699, 24 h) it was 6.25 µg/mL (≈ 15.3 µM); with Salmonella typhinurium it was 3.12 µg/mL (≈ 7.62 µM); in the test on Pasteurella multocida (setting [9]), less than 1.56 µg/mL. Moreover, the MIC in the test with Streptococcus faecalis (Enterococcus faecalis, 24 h) amounted to 6.25 µg/mL (≈ 15.3 µM); with Escherichia coli NIHJ (Escherichia coli, 24 h), 6.25 µg/mL (≈ 15.3 µM); in test [5] (setting [10]), 3.12 µg/mL (≈ 7.62 µM).

As to `CCCCCCCCCCCCCCNCCN1CCN=CC(C)C1=O` (centres unmarked) [Example 40, 4-tetradecylaminoethyl-6-methyl-3,6-dihydro-2H-1,4-diazepin-5-one], the MIC is 50 µg/mL (≈ 137 µM) in test [1] (Pseudomonas, IFO3443, 24 h); less than 1.56 µg/mL in test [2] (setting [8]); 1.56 µg/mL (≈ 4.27 µM) in test [3] (setting [11]); 1.56 µg/mL (≈ 4.27 µM) in test [4] (setting [12]); 3.12 µg/mL (≈ 8.53 µM) in the test on Salmonella typhinurium; less than 1.56 µg/mL in the test with Pasteurella multocida (setting [9]). Moreover, the MIC turned out to be 3.12 µg/mL (≈ 8.53 µM) against Streptococcus faecalis (Enterococcus faecalis, 24 h); 6.25 µg/mL (≈ 17.1 µM) in the test with Escherichia coli NIHJ (Escherichia coli, 24 h); 3.12 µg/mL (≈ 8.53 µM) in [5] (setting [10]).

For `CCCCCCCCCCCCNCCN1CCN=C(C)CC1=O` [Example 2, 4-dodecylaminoethyl-7-methyl-3,6-dihydro-2H-1,4-diazepin-5-one], the MIC in [1] (setting [13]) is 100 µg/mL (≈ 296 µM); in [2] (setting [8]) it was 1.56 µg/mL (≈ 4.62 µM); in [3] (setting [11]), 12.5 µg/mL (≈ 37 µM); in [4] (setting [12]), 12.5 µg/mL (≈ 37 µM); with Salmonella typhinurium, 3.12 µg/mL (≈ 9.24 µM); with Pasteurella multocida (Pasteurella multocida, 24 h), less than 1.56 µg/mL. Moreover, the MIC in the test with Streptococcus faecalis (setting [14]) turned out to be 12.5 µg/mL (≈ 37 µM); in the test on Escherichia coli NIHJ (setting [15]), 25 µg/mL (≈ 74.1 µM); in test [5] (setting [16]), 12.5 µg/mL (≈ 37 µM).

In the case of `CCCCCCCCCCCCCCNCCN1CCCN=CC(C)C1=O` (centres unmarked) [Example 48, 1-tetradecylaminoethyl-3-methyl-3,6,7,8-tetrahydro-1,5-diazocin-2-one], the MIC was 50 µg/mL (≈ 132 µM) in test [1] (Pseudomonas, IFO3443, 24 h); 1.56 µg/mL (≈ 4.11 µM) in [2] (setting [8]); 3.12 µg/mL (≈ 8.22 µM) in test [3] (setting [11]); 3.12 µg/mL (≈ 8.22 µM) in [4] (setting [12]); 3.12 µg/mL (≈ 8.22 µM) in the test with Salmonella typhinurium; less than 1.56 µg/mL in the test with Pasteurella multocida (setting [9]). Also, the MIC was found to be 6.25 µg/mL (≈ 16.5 µM) against Streptococcus faecalis (Enterococcus faecalis, 24 h); 12.5 µg/mL (≈ 32.9 µM) with Escherichia coli NIHJ (Escherichia coli, 24 h); 6.25 µg/mL (≈ 16.5 µM) in test [5] (setting [10]).

For `CCCCCCCCCCCCCCNCCN1CCN=C(C)CC1=O` [Example 35, 4-tetradecylaminoethyl-7-methyl-3,6-dihydro-2H-1,4-diazepin-5-one], the MIC in [1] (setting [13]) is 54 µg/mL (≈ 148 µM); in test [2] (setting [17]), less than 1.56 µg/mL; in test [3] (setting [11]), 1.56 µg/mL (≈ 4.27 µM); in [4] (setting [12]), 1.56 µg/mL (≈ 4.27 µM); in the test with Salmonella typhinurium it was 1.56 µg/mL (≈ 4.27 µM); in the test with Pasteurella multocida (Pasteurella multocida, 24 h) it was less than 1.56 µg/mL. The MIC in the test on Streptococcus faecalis (setting [14]) is 3.12 µg/mL (≈ 8.53 µM); in the test on Escherichia coli NIHJ (Escherichia coli, 24 h), 6.25 µg/mL (≈ 17.1 µM); in test [5] (setting [16]) it was 3.12 µg/mL (≈ 8.53 µM).

Regarding `CCCCCCCCCCCCNCCNCCN1CCN=C(C)CC1=O` [Example 34, 4-dodecylaminoethylaminoethyl-7-methyl-3,6-dihydro-2H-1,4-diazepin-5-one], the MIC is 100 µg/mL (≈ 263 µM) in test [1] (Pseudomonas, IFO3443, 24 h); less than 1.56 µg/mL in test [2] (setting [8]); 3.12 µg/mL (≈ 8.2 µM) in test [3] (setting [11]); 3.12 µg/mL (≈ 8.2 µM) in test [4] (setting [12]); 3.12 µg/mL (≈ 8.2 µM) in the test with Salmonella typhinurium; less than 1.56 µg/mL in the test on Pasteurella multocida (setting [9]). Further, the MIC was 6.25 µg/mL (≈ 16.4 µM) against Streptococcus faecalis (Enterococcus faecalis, 24 h); 25 µg/mL (≈ 65.7 µM) in the test with Escherichia coli NIHJ (Escherichia coli, 24 h); 3.12 µg/mL (≈ 8.2 µM) in test [5] (setting [10]).

As for `CCCCCCCCCCCCCCNCCN1CCN=CCCC1=O` [Example 53, 4-tetradecylaminoethyl-2,3,6,7-tetrahydro-1,4-diazocin-5-one], the MIC is 100 µg/mL (≈ 274 µM) in test [1] (Pseudomonas, IFO3443, 24 h); 1.56 µg/mL (≈ 4.27 µM) in test [2] (setting [8]); 1.56 µg/mL (≈ 4.27 µM) in [3] (setting [11]); 3.12 µg/mL (≈ 8.53 µM) in [4] (setting [12]); 3.12 µg/mL (≈ 8.53 µM) with Salmonella typhinurium; less than 1.56 µg/mL in the test on Pasteurella multocida (setting [9]). The MIC against Streptococcus faecalis (Enterococcus faecalis, 24 h) stood at 6.25 µg/mL (≈ 17.1 µM); in the test on Escherichia coli NIHJ (Escherichia coli, 24 h), 6.25 µg/mL (≈ 17.1 µM); in test [5] (setting [10]) it was 3.12 µg/mL (≈ 8.53 µM).

Turning to `CCCCCCCCCCCCCCNCCN1CCN=CC(C)(C)C1=O` [Example 58, 4-tetradecylaminoethyl-6,6-dimethyl-3-hydro-2H-1,4-diazepin-5-one], the MIC in test [1] (Pseudomonas, IFO3443, 24 h) was 50 µg/mL (≈ 132 µM); in [2] (setting [17]) it was less than 1.56 µg/mL; in test [3] (setting [11]) it was 3.12 µg/mL (≈ 8.22 µM); in test [4] (setting [12]), 3.12 µg/mL (≈ 8.22 µM); in the test on Salmonella typhinurium, 1.56 µg/mL (≈ 4.11 µM); against Pasteurella multocida (Pasteurella multocida, 24 h) it was less than 1.56 µg/mL. Moreover, the MIC worked out at 3.12 µg/mL (≈ 8.22 µM) in the test on Streptococcus faecalis (setting [14]); 6.25 µg/mL (≈ 16.5 µM) in the test with Escherichia coli NIHJ (Escherichia coli, 24 h); 3.12 µg/mL (≈ 8.22 µM) in test [5] (setting [16]).

Regarding `CCCCCCCCCCCCCCC(O)CNCCN1CCN=C(C)CC1=O` (centres unmarked) [Example 29, 4-(2-hydroxyhexadecyl)aminoethyl-7-methyl-3,6-dihydro-2H-1,4-diazepin-5-one], the MIC in test [1] (setting [13]) is 100 µg/mL (≈ 244 µM); in test [2] (setting [8]) it was 1.56 µg/mL (≈ 3.81 µM); in [3] (setting [11]), 6.25 µg/mL (≈ 15.3 µM); in test [4] (setting [12]), 3.12 µg/mL (≈ 7.62 µM); in the test with Salmonella typhinurium, 3.12 µg/mL (≈ 7.62 µM); in the test with Pasteurella multocida (setting [9]) it was less than 1.56 µg/mL. The MIC with Streptococcus faecalis (setting [14]) worked out at 6.25 µg/mL (≈ 15.3 µM); in the test on Escherichia coli NIHJ (setting [15]) it was 25 µg/mL (≈ 61 µM); in [5] (setting [10]) it was 3.12 µg/mL (≈ 7.62 µM).
